From US12036226B2, “Methods of treating subjects having diabetes with chronic kidney disease” (Poxel SA, priority 2018, dated 2024)
Where two headings read alike, the source gives them in different places.

Assay: Phase 1 study of pharmacokinetics and safety of imeglimin in subjects with renal impairment compared to normal renal function
Format: in vivo, human
Details: for concentration at 8 day / Vd/F / Tmax / Cmax / half-life / AUC / AUC(0-t) / CL renal: human, po; for concentration at 8 day / Vd/F / Tmax / Cmax / half-life / AUC / AUC(0-t): plasma; for Vd/F: read-out: Vz/F; for Tmax: median, read-out: tmax; for AUC: read-out: AUC0-τ; for CL renal: urine; for difference in exposure vs normal subjects: Day 8
Procedure: An open-label, parallel-group, multi-center, multiple oral dose study to investigate the pharmacokinetics of imeglimin in subjects with renal impairment compared to subjects with normal renal function was completed.
In this study, a total of 51 subjects received imeglimin at the daily dose of 1000 mg, administered either as 1000 mg QD (once a day) or 500 mg bid (twice a day) during 8 days. […] Twenty-four control subjects with normal renal function were matched to mild and moderate (10 receiving QD and 8 receiving bid regimen) and to severe (6 receiving bid regimen) renal impaired subjects. Measurement of the urine to plasma ratio of creatinine using 24 hours urine sampling was calculated (CLCrea).
Imeglimin was administered in the morning time during 8 consecutive days in the group of subjects receiving 1000 mg once a day and in the morning and evening time during 7 consecutive days followed by a morning administration of 500 mg in the morning time on Day 8 in the group of subjects receiving 500 mg twice a day. Morning administrations on Days 1 and 8 were performed on a fasted state, after a 10 hours overnight fasting and during 4 hours after imeglimin administration.
Inclusion Criteria: For subjects with normal renal functions: CLCrea>80 mL/min based on calculation using 24-hrs sampling on day −2. For subjects with impaired renal function: CLCrea 50 to 80 mL/min for subjects with mild renal impairment, 30 to <50 mL/min for subjects with moderate renal impairment, and <30 mL/min for subjects with severe renal impairment based on calculation using 24-hrs sampling on day −2.
Pharmacokinetic parameters included apparent volume of distribution during the terminal phase following extravascular administration (Vz/F), area under the curve of the plasma concentration as a function of time (AUC0-t), the maximum observed concentration (Cmax), the time to maximum concentration (tmax), the plasma half-life (t1/2), the total body clearance of drug from plasma following extravascular administration (CL/F), and other parameters.
The urinary excretion parameters of imeglimin in subjects with differing degrees of renal impairment following QD or bid oral doses of imeglimin on day 8 are summarized in Table 3 and Table 4. Parameters measured include amount of unchanged drug excreted in urine as a function of time (Ae0-t), renal clearance (CLR), and the amount of unchanged drug excreted in urine during one dosing interval (Ae0-τ), and the percentage of administered dose excreted in urine during one dosing interval (fe0-τ).
For the evaluation of safety and tolerability of multiple oral doses of 1000 mg imeglimin QD (i.e. a total dose of 8000 mg imeglimin) or 500 mg imeglimin BID (i.e. a total dose of 7500 mg imeglimin), laboratory tests (hematology, clinical chemistry, urinalysis), determination of vital signs, ECG recordings, questioning of AEs and physical examinations were performed. […] The incidence of AEs observed within the course of the study was low. Overall 31 out of 51 subjects reported 54 treatment emergent AEs. Of these, only 15 were judged as likely related to the study drug. The majority (39 AEs) were assessed as unlikely related. Based on these low incidence no clear differences between the dose regimens and between the renal impairment groups can be shown.

[1] = 500 mg, 500 mg bid oral, Day 8, Part 1 normal renal function (N = 8), geometric mean
[2] = 500 mg, 500 mg bid oral, Day 8, Part 2 CKD Stage 4 (severe renal impairment; N = 5), geometric mean
[3] = 500 mg, 500 mg bid oral, Day 8, Part 2 normal renal function (N = 6), geometric mean
[4] = 1000 mg, 1000 mg QD oral, Day 8, CKD Stage 3 (moderate renal impairment; N = 6), geometric mean
[5] = 1000 mg, 1000 mg QD oral, Day 8, CKD stage 2 (mild renal impairment; N = 5), geometric mean
[6] = 1000 mg, 1000 mg QD oral, Day 8, normal renal function (N = 8), geometric mean
[7] = 1000 mg, 1000 mg QD oral, Day 8, normal renal function (N = 10), geometric mean

In the case of `C[C@H]1N=C(N(C)C)N=C(N)N1` [imeglimin, (6R)—N^2, N^2,6-trimethyl-3,6-dihydro-1,3,5-triazine-2,4-diamine], the concentration at 8 day (500 mg, 500 mg bid oral, Day 8, Part 1 CKD Stage 3 (moderate renal impairment; N = 6), geometric mean, read-out: Cav) is reported as 1430 ng/mL, the Vd/F (500 mg, 500 mg bid oral, Day 8, Part 1 CKD Stage 3 (moderate renal impairment; N = 6), geometric mean) is reported as 922 L and the Tmax (500 mg, 500 mg bid oral, Day 8, Part 1 CKD Stage 3 (moderate renal impairment; N = 6)) is reported as 3.5 h. It also gave a Cmax [1] of 1030 ng/mL, a half-life [1] of 792 min and an AUC [1] of 7390 ng·h/mL. For the same molecule, the concentration at 8 day (500 mg, 500 mg bid oral, Day 8, Part 1 normal renal function (N = 8), geometric mean, read-out: Cav) was 616 ng/mL, the concentration at 8 day (500 mg, 500 mg bid oral, Day 8, Part 1 normal renal function (N = 8), geometric mean, read-out: Cmin) was 202 ng/mL and the Vd/F [1] was 1290 L. The Tmax (500 mg, 500 mg bid oral, Day 8, Part 1 normal renal function (N = 8)) was 3.5 h, the Cmax [2] was 2860 ng/mL and the half-life [2] was 1060 min. It also gave an AUC [2] of 24800 ng·h/mL, a concentration at 8 day (500 mg, 500 mg bid oral, Day 8, Part 2 CKD Stage 4 (severe renal impairment; N = 5), geometric mean, read-out: Cav) of 2070 ng/mL and a Vd/F [2] of 511 L. The Tmax (500 mg, 500 mg bid oral, Day 8, Part 2 CKD Stage 4 (severe renal impairment; N = 5)) was 3.5 h, the Cmax [3] was 998 ng/mL and the half-life [3] was 900 min. It also gave an AUC [3] of 6970 ng·h/mL, a concentration at 8 day (500 mg, 500 mg bid oral, Day 8, Part 2 normal renal function (N = 6), geometric mean, read-out: Cav) of 581 ng/mL and a Vd/F [3] of 1550 L. For the same molecule, the Tmax (500 mg, 500 mg bid oral, Day 8, Part 2 normal renal function (N = 6)) was 3.75 h, the AUC(0-t) [4] was 29100 ng·h/mL and the Cmax [4] was 2570 ng/mL. It also gave a half-life [4] of 1400 min, a concentration at 8 day (1000 mg, 1000 mg QD oral, Day 8, CKD Stage 3 (moderate renal impairment; N = 6), geometric mean, read-out: Cav) of 1210 ng/mL and a concentration at 8 day (1000 mg, 1000 mg QD oral, Day 8, CKD Stage 3 (moderate renal impairment; N = 6), geometric mean, read-out: Cmin) of 335 ng/mL. The Vd/F [4] was 1160 L, the Tmax (1000 mg, 1000 mg QD oral, Day 8, CKD Stage 3 (moderate renal impairment; N = 6)) was 5 h and the AUC(0-t) [5] was 20100 ng·h/mL. It also gave a Cmax [5] of 2050 ng/mL, a half-life [5] of 900 min and a concentration at 8 day (1000 mg, 1000 mg QD oral, Day 8, CKD stage 2 (mild renal impairment; N = 5), geometric mean, read-out: Cav) of 838 ng/mL. It also gave a concentration at 8 day (1000 mg, 1000 mg QD oral, Day 8, CKD stage 2 (mild renal impairment; N = 5), geometric mean, read-out: Cmin) of 178 ng/mL, a Vd/F [5] of 1070 L and a Tmax (1000 mg, 1000 mg QD oral, Day 8, CKD stage 2 (mild renal impairment; N = 5)) of 4 h. For the same molecule, the half-life [6] was 984 min, the Vd/F [6] was 1570 L and the AUC(0-t) [7] was 15400 ng·h/mL. For the same molecule, the Cmax [7] was 1750 ng/mL, the concentration at 8 day (1000 mg, 1000 mg QD oral, Day 8, normal renal function (N = 10), geometric mean, read-out: Cmin) was 115 ng/mL and the Tmax (1000 mg, 1000 mg QD oral, Day 8, normal renal function (N = 10)) was 4 h. The CL renal (500 mg, 500 mg bid oral, Day 8, CKD Stage 2 (mild renal impairment) (N = 4), geometric mean (CV %), read-out: CLR) was 323 mL/min, the CL renal (500 mg, 500 mg bid oral, Day 8, CKD Stage 3 (moderate renal impairment) (N = 6), geometric mean (CV %), read-out: CLR) was 193 mL/min and the CL renal (500 mg, 500 mg bid oral, Day 8, CKD Stage 4 (severe renal impairment) (N = 5), geometric mean (CV %), read-out: CLR) was 140 mL/min. For the same molecule, the CL renal (500 mg, 500 mg bid oral, Day 8, normal renal function (N = 6), geometric mean (CV %), read-out: CLR) was 548 mL/min, the CL renal (500 mg, 500 mg bid oral, Day 8, normal renal function (N = 8), geometric mean (CV %), read-out: CLR) was 501 mL/min and the CL renal (1000 mg, 1000 mg QD oral, Day 8, CKD Stage 2 (mild renal impairment), N = 2, min, max, read-out: CLR (renal clearance)) was 388 to 522 mL/min. The CL renal (1000 mg, 1000 mg QD oral, Day 8, CKD Stage 3 (moderate renal impairment) (N = 6), geometric mean, read-out: CLR (renal clearance)) was 197 mL/min, the CL renal (1000 mg, 1000 mg QD oral, Day 8, normal renal function (N = 10), geometric mean, read-out: CLR (renal clearance)) was 418 mL/min and the “difference in exposure vs normal subjects” value (from here on “difference in exposure”) (mild renal impairment) was “up to 1.5 fold”. For the same molecule, the “difference in exposure” value (moderate renal impairment) was no more than 2.3 fold, the “AEs assessed as unlikely related” value (of 54 treatment emergent AEs) was 39 and the “AEs judged as likely related to the study drug” value (of 54 treatment emergent AEs) was 15. The “Steady-state attained by” value (repeated dosing of 1000 mg QD and 500 mg bid) was no more than 6 days, the “decrease in renal clearance vs normal subjects” value (severe renal impairment) was no more than 74% and the “decrease in total oral body clearance vs normal subjects” value (severe renal impairment) was “up to 72%”. The “difference in exposure” value (severe renal impairment) was “up to 3.6 fold” and the “general safety and tolerability assessment” value (total daily dose of 1000 mg over 8 days) was “good or very good tolerability”.
